In BindingDB's records for doi:10.3109/14756366.2012.715288 (Ankara University, 2013) one finds IC50 data, which are given here for 4 compounds.

SMILES strings stand for the structures.

As usually defined, the IC50 is the concentration that inhibits the measured activity by half. Higher therefore signals lower potency.

For assay [1], the target named is Proto-oncogene tyrosine-protein kinase Src (Homo sapiens, UniProt P12931). Briefly: In Vitor Src Tyrosine Kinase Activity Assay. The note with it: 22 °C. On the procedure: (§1) Kinase activity (Src-family kinases, Hck, Lyn, Fyn, and c-Src) and the effect of the molecules were determined by ProFluor Src-Family Kinase Assay Kit (Promega). […] The compounds were dissolved in 10% DMSO and tested at 1, 10 and 100 μM concentrations. Briefly, the molecules were mixed with a reaction buffer that included a specific substrate for Src-family kinases (R110), a control substrate and the kinase. The reaction was initiated by the addition of ATP. After incubating the 96-well reaction plate at 22°C for 1 h, protease solution was added to each well and the plate was incubated for 1 h.

Assay [2] deals with Tyrosine-protein kinase Lyn (Homo sapiens, UniProt P07948). The assay can be described thus: In Vitor Src Tyrosine Kinase Activity Assay. The note with it: 22 °C. The protocol: as §1
Tyrosine-protein kinase Lyn, sequence (P07948 whole entry): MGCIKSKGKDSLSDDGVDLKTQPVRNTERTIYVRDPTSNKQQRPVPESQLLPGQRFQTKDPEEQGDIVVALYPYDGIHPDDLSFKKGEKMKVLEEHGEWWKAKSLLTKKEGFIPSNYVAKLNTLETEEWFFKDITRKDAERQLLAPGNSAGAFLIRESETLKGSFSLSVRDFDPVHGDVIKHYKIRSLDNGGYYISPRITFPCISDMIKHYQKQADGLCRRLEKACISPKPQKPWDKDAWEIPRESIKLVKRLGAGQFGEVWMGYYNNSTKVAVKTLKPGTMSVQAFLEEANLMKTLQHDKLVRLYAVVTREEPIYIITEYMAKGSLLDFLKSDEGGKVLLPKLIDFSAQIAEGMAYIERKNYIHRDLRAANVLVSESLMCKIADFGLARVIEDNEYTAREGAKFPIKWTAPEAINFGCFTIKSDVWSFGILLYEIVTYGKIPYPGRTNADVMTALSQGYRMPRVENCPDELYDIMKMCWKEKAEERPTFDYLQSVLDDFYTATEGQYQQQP

Proto-oncogene tyrosine-protein kinase Src, sequence (P12931 2-536 limits assumed): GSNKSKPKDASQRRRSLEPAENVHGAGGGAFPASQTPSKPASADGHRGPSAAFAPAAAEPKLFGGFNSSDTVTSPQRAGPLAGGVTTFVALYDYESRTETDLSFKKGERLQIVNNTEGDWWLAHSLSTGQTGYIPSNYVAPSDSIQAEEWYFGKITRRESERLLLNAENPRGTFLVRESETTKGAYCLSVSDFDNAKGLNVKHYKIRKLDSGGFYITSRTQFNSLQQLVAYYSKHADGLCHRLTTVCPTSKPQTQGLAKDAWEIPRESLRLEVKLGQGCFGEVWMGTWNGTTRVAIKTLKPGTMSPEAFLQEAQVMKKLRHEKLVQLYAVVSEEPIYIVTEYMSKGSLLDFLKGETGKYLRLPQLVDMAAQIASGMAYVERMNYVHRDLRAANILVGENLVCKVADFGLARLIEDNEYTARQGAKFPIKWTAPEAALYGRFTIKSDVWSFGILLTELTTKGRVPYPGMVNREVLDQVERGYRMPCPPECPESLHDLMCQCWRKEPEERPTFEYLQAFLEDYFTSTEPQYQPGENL

Take `COc1cccc(-c2cn(-c3ccc(CCN4CCC(O)CC4)cc3)c3ncnc(N)c23)c1` [CGP77675]: the IC50 in assay [1] turned out to be 0.0004 µM.

With `Cc1ccc(C(=O)NCc2c[nH]c3nc(N)[nH]c(=O)c23)s1` [N-[(2-Amino-4-oxo-4,7-dihydro-3H-pyrrolo[2,3-d]pyrimidin-5-yl)methyl]-5-methylthiophene-2-carboxamide (7)], in assay [1], the IC50 came to 16 µM.

In turn, `CN1CCN(C2CCC(n3cc(-c4ccc(Oc5ccccc5)cc4)c4c(N)ncnc43)CC2)CC1` (centres undefined) [A-419259] registered an IC50 in assay [2] of 0.0003 µM.

As to `COc1ccc(CCCC(=O)NCc2c[nH]c3nc(N)[nH]c(=O)c23)cc1OC` [N-((2-Amino-4-oxo-4,7-dihydro-3H-pyrrolo[2,3-d]pyrimidin-5-yl)methyl)-4-(3,4-dimethoxyphenyl)butanamide (5)], the midpoint of inhibition in assay [1], the IC50, lay at 21 µM.
